Source: article PMC12011790, “Synergistic chemo-immunotherapy for osteosarcoma via a pH-responsive multi-component nanoparticle system” (Frontiers in Pharmacology, 2025)

Tests used:
[1] = Stability (retention) of the PD-1/PD-L1 peptide in PBS and FBS-containing PBS, HPLC; format: in vitro ADME; conditions: 48 h; for peptide content remaining: peptide conjugated in co-loaded nanoparticles, FBS-containing PBS (50% FBS), mean ± SD, n = 3, SD
Source text: […] Peptide content was quantified using high-performance liquid chromatography (HPLC). This analysis aimed to determine peptide degradation in PBS and FBS-containing media, considering the potential influence of protease activity present in serum.

LM8 cells [2] = assay: Extracellular ATP release, bioluminescence kit; format: cell-based, murine; conditions: LM8 culture supernatant, 10 μM DOX or equivalent, 24 h, mean ± SEM by Figure 3 legend
Protocol: (§1) The immunogenic cell death (ICD) biomarkers, including calreticulin (CRT), high-mobility group box 1 (HMGB1), and adenosine triphosphate (ATP), were analyzed. LM-8 cells were seeded in 24-well plates at a density of 1 × 10^5 cells per well, and the cells were allowed to grow to an appropriate confluence.
On the other hand, additional sets of cells received identical treatments were employed to determine the released HMGB1 and ATP. Briefly, culture supernatant was collected and centrifuged to remove cell debris. Subsequently, the extracellular HMGB1 was quantified using an enzyme-linked immunosorbent assay (ELISA) kits (R&D systems, China), whereas the supernatant ATP was quantified using a bioluminescence kit (No. S0026, Beyotime, China) and measured by a multifunction microplate reader.

[3] = Body weight during treatment (systemic toxicity); format: in vivo, C3H/HeJ mice; conditions: LM8-bearing mice; tail vein, DOX equivalent 10 mg/kg every other day, 7 doses
Protocol: (§2) Each group received the corresponding treatment via tail vein injection, with a DOX equivalent dose of 10 mg/kg administered every other day for a total of 7 doses. Tumor volume and mouse body weight were recorded every other day during the treatment. On day 14, the mice were euthanized under anesthesia, and the tumors were excised and weighed for further analysis. The tumor was further stained with hematoxylin and eosin (H&E) after mice sacrificed.

[4] = cumulative doses exceeding 550 mg/m^2; ref Alberts and Garcia, 1997; Treat et al., 1990; cited from earlier work
Source text: A major challenge in OS treatment lies in the toxicity associated with conventional chemotherapeutic agents. […] Although reducing DOX dosage can alleviate the cardiotoxicity, this reduction risks compromising the therapeutic efficacy, particularly its ability to induce immunogenic cell ...

[5] = tested on: immune cell populations in the tumor, and tumor-draining lymph nodes; assay: Flow cytometric immune cell profiling of tumor and tumor-draining lymph nodes; format: in vivo, C3H/HeJ mice; conditions: post-treatment, flow cytometry
Source text: Flow cytometry was applied to characterize the change in immune cell populations in the tumor, and tumor-draining lymph nodes (TDLNs). Excised tumors were harvested, homogenized and consecutively strained through 70-μm filters to obtain single cell suspensions, while the lymph nodes were manually dissociated through a 40-μm filter to obtain a single cell suspension. Cells were stained with fluorescent antibodies to identify immune cell pollutions.
Single-cell suspensions of TDLNs were stained with CD11c (clone N418; Biolegend), CD80 (clone 16-10A1; Biolegend), CD86 (clone GL1; Biolegend) for the analysis of mature DCs.
Single-cell suspensions of tumor tissues were stained with CD3 (clone 145-2C11; BD), CD4 (clone RM4-5; BD), CD8 (clone 53–6.7; Biolegend), CD62L (clone MEL-14; Biolegend), or CD44 (clone 1M7; Biolegend) antibodies for flow cytometry analysis. For intracellular cytokine and marker staining, after extracellular staining, cells were fixed and permeabilized with BD Cytofix/Cytoperm kit (BD Biosciences) and incubated with fluorescently conjugated antibodies against IFNγ (clone XMG1.2; Biolegend) or granzyme B (clone GB11; Biolegend) antibodies. […] Samples were run on a Beckman Coulter Gallios™ flow cytometer and analyzed using FlowJo software.

LM8 cells [6] = assay: Calreticulin (CRT) surface exposure, flow cytometry; format: cell-based, murine; conditions: 10 μM DOX or equivalent, 24 h, mean ± SEM by Figure 3 legend
Protocol: as §1
After treatment, the cells were digested, collected, and washed twice with cold PBS. To determine the surface expression of CRT, the cells were blocked with CD16/32 antibody for 10 min, incubated with Alexa 488-anti-CRT antibody (EPR3924, 1:500 v/v, Abcam) for 15 min at 4°C, washed once with PBS, resuspended with PBS, and detected by flow cytometry.

LM8 osteosarcoma = assay: Antitumor efficacy in LM8-bearing osteosarcoma model; format: in vivo; conditions: LM8-bearing C3H/HeJ mice, tail vein, DOX equivalent 10 mg/kg every other day, 7 doses, n = 5
Protocol: To investigate the in vivo antitumor effects, male C3H/HeJ mice (8–10 weeks old) were purchased from GemPharmatech (Nanjing, China). All animal experiments were conducted with the relevant institutional guidelines of Jiangsu University, and were approved by the Institutional Animal Care And Use Committees of Jiangsu University (UJS-IACUC-2024080202).
[…] LM8-bearing OS model was established by injected subcutaneously 1 × 10^7 LM8 cells into the backs of mice. Tumor growth was allowed to proceed for approximately 7 days prior to treatment until the tumors reached a measurable size. Tumor size was monitored using a caliper, with tumor volume calculated according to the formula: (length × width^2)/2.
as §2

[7] = tested on: LM8 murine osteosarcoma cells; assay: CCK-8 cell viability; format: cell-based; conditions: 48 h, pH not stated, mean ± SD, n = 3
Protocol: The LM8 murine osteosarcoma cell line, derived from C3H/He mice, was purchased from HyCyte™ (Suzhou, China). LM8 cells were maintained in Dulbecco’s modified Eagle’s medium (DMEM, Gibco, NY, United States) supplemented with 10% fetal bovine serum (FBS, Gibco). Cells were cultured at 37°C in an incubator under 5% CO2.
LM-8 cells were seeded at a density of 1 × 10^6 cells/mL in a 96-well plate. After 24 h incubation, the culture medium was replaced with 100 μL of medium containing serial dilutions of different treatment samples. After 48 h incubation, 10 μL of the CCK-8 reagent (Dojindo, Kyushu, Japan) was added into each well and incubated for further 2 h at 37°C. The absorbance of each sample was measured at 450 nm using a multifunction microplate reader (Biotek, VT, United States).

peptide remaining intact ([1]; peptide conjugated as DSPE-PEG-peptide in co-loaded nanoparticles, PBS, 37°C, n = 3) | peptide content remaining ([1]; 25°C) | peptide content remaining ([1]; 37°C) | Compound | extracellular ATP level (LM8 cells [2]) | body weight change [3] | long-term survivors affected by cardiotoxicity [4] | infiltrated CTLs (CD3+CD8+) in tumor tissue [5] | CRT exposure (% of cells) (LM8 cells [6]) | tumor growth (tumor volume) (LM8 osteosarcoma; 14 days) | tumor mass at end of study (LM8 osteosarcoma; day 14) | IC50 [7]
over 90% | 78.57% ± 0.81% | 72.32% ± 1.26% | CGGGGSHFSASYDKYAEKF [PD-1/PD-L1 targeting peptide] |  |  |  |  |  |  |  | 
 |  |  | COc1cccc2c1C(=O)c1c(O)c3c(c(O)c1C2=O)C[C@@](O)(C(=O)CO)C[C@@H]3O[C@H]1C[C@H](N)[C@H](O)[C@H](C)O1.Cl [free DOX, Doxorubicin hydrochloride] | 266.05 ± 42.73 nM | significant weight loss | approximately 30% | moderate CTLs infiltration | 73.04% ± 6.35% | moderate reduction in tumor growth | moderate reductions in tumor mass | 13.3 ± 1.24 µM
